Results: US11752162B2, “Compounds and compositions for treating solid tumors by intratumoral administration” (Novartis AG, priority 2017, dated 2023)

How the values were obtained:
[1] = Extent of Compound 15 binding to Alhydrogel (% bound) in the suspension; type: physicochemical; conditions: for % bound (Compound 15 adsorbed to aluminum hydroxide): 100 mM Tris buffer (pH 7.4)
Protocol: In the preparation of the Compound 15/Alhydrogel® suspension used in the Examples herein, the stock suspension of Alhydrogel® was filtered by gravity filtration through a 100 μm cell strainer before mixing with stock solution comprising Compound 15. The resulting mixture/suspension was stirred for 5 minutes to allow Compound 15 to adsorb/bind to the aluminum of Alhydrogel®.
To determine the extent of Compound 15 binding to Alhydrogel® (i.e. % bound) in the Compound 15/Alhydrogel® suspension used in the Examples herein, aliquots of the suspension were centrifuged to pellet the bound Compound 15/Alhydrogel® (e.g. 21,000×g for 10 min), and the amount of free Compound 15 in the supernatant was analyzed by HPLC/UV or LC/MS/MS.

[2] = Mouse plasma PK, MC38 syngeneic tumor model, one week study; type: in vivo; conditions: female, C57BL/6, mouse, 100 ug, 100 μg Compound 15, single i.t. injection, MC38 tumor bearing mice
Protocol: A MC38 syngeneic mouse tumor model was used to investigate the systemic exposure of Compound 15 following: • a) a single intra-tumoral (i.t.) injection of 100 μg (˜4 mg/kg) of free form Compound 15 in 20 mM Tris buffer pH 7.4, • b) a single intra-tumoral (i.t.) injection of Compound 15 adsorbed to Alhydrogel® suspension at a 1:1.5 ratio (w/w) of Compound 15 to Alhydrogel®)-Suspension A described below and • c) a single subcutaneous (s.c.) injection of Compound 15 adsorbed to Alhydrogel® suspension at a 1:1.5 ratio (w/w) of Compound 15 to Alhydrogel®-Suspension A described below.
For each mouse, 0.25×10^6 cells were implanted with subcutaneously injection into right flank using a 28½ g needle (1004 injection volume). Female C57BL/6 mice bearing the MC38 tumors were randomized into separate groups (n=3-24 mice per group) 10 days post tumor cell implantation with an average tumor volume range of 95.05-194.36 mm^3.
Approximately 10 days after MC38 tumor implant, tumor bearing mice received a single dose of vehicle, 100 μg of free Compound 15 solution (2 mg/mL) or Compound 15 adsorbed to Alhydrogel (1:1.5 w/w; 97% bound) by direct intra-tumoral (i.t.) injection or subcutaneous (s.c.) injection. The dose volume was 50 μL per animal. Plasma samples were taken up to 7 days post dose at time points indicated in Table 11 (n=3 animal per time point).
Plasma concentrations of Compound 15 were quantified using a Liquid Chromatography/Mass Spectrometry (LC/MS/MS) assay. […] To 20 μL of each plasma sample or appropriately diluted plasma sample, 25 μL of internal standard solution was added, then mixed with 150 μL of extraction solvent (methanol/acetonitrile, 80/20 by volume) to precipitate plasma proteins. The samples were vortexed for 5 minutes then centrifuged with an Eppendorf Centrifuge 5810R (Eppendorf, Hamburg, Germany) at a setting of 4,000 rpm for 10 minutes at 4° C. Aliquot of supernatant (50 μL) was transferred to a clean 96-well plate and mixed with 100 μL of Milli-Q water. The mixed samples were injected (25 μL) onto a Waters XBridge C4 analytical column (2.1×50 mm, 3.5 μm), and mobile phases consisted of 0.1% formic acid in water (solvent A) and 0.1% formic acid in acetonitrile (solvent B). […]
The HPLC system, consisting of Agilent 1200 series binary pump (Agilent Technologies Inc.), Agilent 1200 series micro vacuum degasser (Agilent Technologies Inc.), CTC PAL-HTC autosampler (LEAP Technologies, Carborro, N.C., USA) was interfaced to a AB Sciex API 4000 QTrap mass spectrometer (AB Sciex LLC., Framingham, Mass., USA). […] The lower limit of quantitation (LLOQ) in plasma was 0.25 ng/mL. […]

[3] = in vivo; conditions: male, Wistar, rat, iv, 1 mg/kg
Protocol: Note: The pharmacokinetic properties of Compound 15 in 50 mM Tris/0.9% NaCl (pH 7.4) were examined in male Wistar rats following a single 1 mg/kg intravenous bolus administration.

[4] = tested on: IP-10; experiment: Plasma IP-10 profiles in Wistar rats after s.c. injection; type: in vivo, rat; conditions: male Wistar rats
[5] = tested on: A20 tumors; experiment: Mouse syngeneic lymphoma A20 bilateral tumor model, single agent dose response; type: in vivo; conditions: Compound 15 alone i.t., two weekly doses
Protocol: The anti-tumor efficacy of Compound 15 adsorbed to Alhydrogel® was determined using the mouse syngeneic lymphoma A20 bilateral tumor model in female BALB/c mice.
A20 cells were grown in sterile conditions in a 37° C. incubator with 5% CO2 for two weeks. Cells were grown in RPMI 1640 medium with 2 mM L-glutamine adjusted to contain 1.5 g/L sodium bicarbonate, 4.5 g/L glucose, 10 mM HEPES, and 1.0 mM sodium pyruvate and supplemented with 0.05 mM 2-mercaptoethanol, 10% fetal bovine serum. Cells were passaged every 2-3 days. For the day of implant cells were lifted (passage 12) and re-suspended in HBSS at a concentration of 5×10^6 cells/100 μL. Cells were Radil tested for mycoplasma and murine viruses. For each mouse, 5×10^6 cells were implanted by subcutaneous injection into the right and left flank using a 28.5 g needle (100 μl injection volume). Tumor sizes were assessed three times a week once tumors were palpable. Tumor sizes were determined by using caliper measurements, with tumor volumes calculated using the formula: (Length×Width×Width)/2.
The female Balb/c mice bearing the A20 tumors were randomized into 7 groups (n=10 mice per group) 8 days post tumor cell implantation with an average tumor volume range of 111.40±23.57 mm^3. […]
Tumor volumes were measured by digital caliper 3 times a week and body weights of all animals were recorded throughout the study. […]

## Cc1cc(OCCOCCC(F)(F)P(=O)(O)O)ccc1CCc1cnc2c(N)nc3cc(CCC(=O)O)ccc3c2c1 [Compound 15, 3-(5-amino-2-(4-(2-(3,3-difluoro-3-phosphonopropoxy)ethoxy)-2-methylphenethyl)benzo[f][1,7]naphthyridin-8-yl)propanoic acid]
[1]; 50 μg dose formulation, 1:2.5 w/w ratio
  % bound (Compound 15 adsorbed to aluminum hydroxide): 91%
[1]; 200 μg dose formulation, 1:2.5 w/w ratio
  % bound (Compound 15 adsorbed to aluminum hydroxide): 94%
[1]; 600 μg dose formulation, 1:2.5 w/w ratio
  % bound (Compound 15 adsorbed to aluminum hydroxide): 97%
[1]; 50 kg/50 μg (so in the source) dose formulation, 1:20 w/w ratio
  % bound (Compound 15 adsorbed to aluminum hydroxide): 98%
[1]; 600 kg (so in the source) dose formulation, 1:1.7 w/w ratio
  % bound (Compound 15 adsorbed to aluminum hydroxide): 98%
[1]; fixed ratio of 1:1.5 w/w, A20 study formulation
  % bound (Compound 15/aluminum hydroxide): 97%
[2]
  AUC(0-inf): 6220 ng·h/mL
  Cmax: 10600 ng/mL
  Tmax: 4.98 min
[2]; other: intra-tumoral (i.t.) injection
  half-life: 159 min
[3]
  MRT: 12 min
  half-life: 72 min
[3]; pH 7.4
  clearance: 9.2 mL/min/kg
[4]; 600 μg s.c.
  peak plasma IP-10 levels compared with 600 μg Compound 15/aluminum hydroxide: higher peak IP-10 levels with a fast rate of decline
[4]; 50 and 600 μg adsorbed, 600 μg free Compound 15
  time of maximum plasma IP-10 levels post s.c. injection: around 3 h
[5]
  tumor growth, both tumor sites: no significant difference in both tumor sites
